Laboratory results taken from article PMC2877875, “Characterisation of the bifunctional dihydrofolate synthase–folylpolyglutamate synthase from Plasmodium falciparum; a potential novel target for antimalarial antifolate inhibition” (Molecular and Biochemical Parasitology, 2010).
Entries after “also recorded” stand apart in the source; their conditions may differ. Read-outs that look alike come from different tables or passages of the source. Each block holds one molecule with its values, some of them ahead of it.

Columns and labels:
[1] = target: PfDHFS–FPGS (FPGS activity) (Plasmodium falciparum, UniProt Q8IE69); experiment: biochemical; assay type: biochemical
Protocol: (§1) A standard reaction mix based on those established for bacterial and eukaryotic DHFS/FPGS assays was adopted [[28,36,37]] and contained 10 mM MgCl2, 5 mM DTT, 200 mM KCl, 100 mM Tris, 50 mM glycine, 1 mg/ml BSA, 45 μg/ml DHFS–FPGS protein (0.72 μM), pH 10. […] The enzyme reactions were carried out at 37 °C for 60 min in triplicate and stopped by transferring reaction tubes into an ice-cold water bath. Reaction mixes were then spotted onto DE81 ion-exchange paper (pre-treated with 0.5 M EDTA, pH 8.0 and then dried), air dried and the unreacted label washed away with 125 ml of 40 mM NaCl, 10 mM Tris–HCl, pH 8.0, four times, 20 min each wash. The filter was then exposed to a storage phosphor screen overnight and the screen scanned with a quantitative imager (Typhoon Trio Variable Mode Imager, GE Healthcare, UK). The measured counts were converted to concentrations by comparison with a standard curve derived from known amounts of the radiolabelled L-glutamate subsequently used as substrate in the assays. The enzyme activity data was analysed using the Matlab software package. Regression curves were fitted using the least squares routine.

[2] = system: bacterial and mammalian FPGS; conditions: read-out: Km with bacterial and mammalian FPGS; cited from earlier work
P. falciparum FCB strain = experiment: Metabolic labelling of parasite cultures with 3H-folinic acid and 3H-methotrexate, HPLC analysis; assay type: cell-based, Plasmodium falciparum; conditions: for conversion to polyglutamylated forms in parasite cultures: 3H label 0.5 μCi/ml, ring-stage culture, 20 h incubation, HPLC
Protocol: 0.5 μCi/ml of either ^3H-folinic acid or ^3H-methotrexate at the same specific activity was used to label parallel 50 ml synchronous cultures of P. falciparum FCB strain. Label was incubated with ring-stage (6–10 h) parasites, which were harvested at the late trophozoite stage 20 h later. The labelled products were extracted by the boiling method and analysed using HPLC on a C18 column eluted with an acetonitrile gradient as described.

[3] = target: PfDHFS–FPGS (DHFS activity) (Plasmodium falciparum, UniProt Q8IE69); experiment: DHFS assay of recombinant PfDHFS–FPGS ([14C]glutamate incorporation); assay type: biochemical; conditions: for Km: low co-substrate concentrations (ATP or glutamate ≤25 μM), Michaelis–Menten fit, read-out: apparent Km, DHFS activity
Protocol: as §1

bacterial DHFS = conditions: cited from earlier work
P. falciparum cultures = experiment: Growth of P. falciparum cultures (dose–response); assay type: cell-based, Plasmodium falciparum
[4] = substrate: N[C@@H](CCC(=O)O)C(=O)O; experiment: DHFS assay of recombinant PfDHFS–FPGS ([14C]glutamate incorporation); assay type: biochemical; conditions: other: low co-substrate concentrations (ATP or glutamate ≤25 μM), Michaelis–Menten fit; 37.0 °C
Protocol: as §1

[5] = low substrate concentrations, 25 μM substrate, 25 μM ATP, 18 μM glutamate

Molecule: 5,6,7,8-tetrahydrofolate [THF]
- processing as substrate for polyglutamylation by FPGS activity (words) [1]: efficiently converted to polyglutamylated forms
- Km [2]: 2 to 5 µM

Molecule: Nc1nc(=O)c2c([nH]1)NCC(CNc1ccc(C(=O)N[C@@H](CCC(=O)O)C(=O)O)cc1)N2C=O (mixture of isomers) [folinic acid]
- conversion to polyglutamylated forms in parasite cultures (P. falciparum FCB strain): almost complete

Molecule: Nc1ncnc2c1ncn2[C@@H]1O[C@H](COP(=O)(O)OP(=O)(O)OP(=O)(O)O)[C@@H](O)[C@H]1O [ATP]
- Km [3]: 22.8 µM

Molecule: Nc1nc(=O)c2c([nH]1)NCC(CNc1ccc(C(=O)N[C@@H](CCC(=O)O)C(=O)O)cc1)=N2 [DHF, 7,8-dihydrofolate]
- processing as substrate for polyglutamylation by FPGS activity (words) [1]: very poor substrates
- polyglutamylated forms of folate produced compared with that produced from THF ([1]; high substrate concentrations, 100 μM substrate, 2 mM ATP, 200 μM glutamate): 12%
- processing as substrate for polyglutamylation by FPGS activity (words) ([1]; listed as dihydrofolate): negligibly processed
- polyglutamylated forms of folate produced compared with that produced from THF [1, 5]: 21%

Molecule: Nc1nc2c(c(=O)[nH]1)N=C(CNc1ccc(C(=O)O)cc1)CN2 [DHP, 7,8-dihydropteroate]
- Km (bacterial DHFS): 0.4 to 6 µM
- DHP concentration at which DHFS activity peaked ([3]; ATP 0.5 mM, glutamate up to ∼1 mM): 1 to 2 µM
- dissociation constant KA for the substrate binding (catalytic site) ([3]; best-fit model a (partial substrate inhibition, three substrates), ATP 6 μM to 5 mM, glutamate 25 μM to 1 mM, n = 15): 0.50 µM
- Kd ([3]; best-fit model a, ATP 6 μM to 5 mM, glutamate 25 μM to 1 mM, n = 15, read-out: dissociation constant KABCA for the substrate (DHP) inhibition (inhibitory site)): 1250 nM
- DHP concentration above which substrate inhibition became significant ([3]; high ATP and glutamate): > 2 µM
- Km [3]: 0.88 µM

Molecule: Nc1nc2c(c(=O)[nH]1)N=C(CNc1ccc(P(=O)(O)CC(CCC(=O)O)C(=O)O)cc1)CN2 (stereo not shown) [H2-1]
- Ki [1]: 630 nM
- IC50 [3]: 410 nM
- Ki [3]: 140 nM
- potency for DHFS activity over FPGS activity ([3]; from Ki values): about 5 fold

Molecule: Nc1nc2c(c(=O)[nH]1)N=C(CNc1ccc(C(=O)N[C@@H](CCP(=O)(O)CC(CCC(=O)O)C(=O)O)C(=O)O)cc1)CN2 (stereo partly shown) [H2-2]
- IC50 [1]: 390 nM
- Ki [1]: 91 nM
- potency for FPGS activity over DHFS activity ([1]; from Ki values): ~20 fold
- Ki [3]: 1690 nM

Molecule: CN(Cc1cnc2nc(N)nc(N)c2n1)c1ccc(C(=O)N[C@@H](CCC(=O)O)C(=O)O)cc1 [MTX, methotrexate]
- processing as substrate for polyglutamylation by FPGS activity (words) [1]: negligibly processed; also recorded: not a substrate
- inhibition of FPGS activity ([1]; MTX up to 1.0 mM, THF 10 μM, ATP 5 mM, glutamate 275 μM): inhibited neither DHFS nor FPGS; also recorded: neither the DHFS nor FPGS activities showed any sensitivity
- IC50 (P. falciparum cultures; Plasmodium falciparum, average for four different strains): ~40 nM
- effect on parasite growth at extremely low levels (P. falciparum cultures; around 1 nM): stimulatory effect on growth
- conversion to polyglutamylated forms in parasite cultures (P. falciparum FCB strain): no polyglutamylated versions of MTX could be detected; also recorded: No polyglutamylated forms of MTX could be detected
- accumulation (uptake and retention) in parasites (P. falciparum FCB strain; equal initial label concentrations, 20 h): somewhat higher levels than folinic acid; also recorded: exceeded that of folinic acid
- inhibition of DHFS activity ([3]; MTX up to 1.0 mM, DHP 10 μM, ATP 5 mM, glutamate 275 μM): inhibited neither DHFS nor FPGS; also recorded: neither the DHFS nor FPGS activities showed any sensitivity

- strong inhibition of DHFS activity by the oxidised form ([3]; oxidised (unreduced) form): not its oxidised form
Molecule: Nc1nc2ncc(CNc3ccc(P(=O)(O)CC(CCC(=O)O)C(=O)O)cc3)nc2c(=O)[nH]1 (stereo not shown) [compound 1, 2-[[[4-[N-[(2-amino-3,4-dihydro-4-oxo-6-pteridinyl)methyl]amino]phenyl](hydroxy)phosphinoyl]methyl]pentane-1,5-dioic acid]

Molecule: Nc1nc(=O)c2nc(CNc3ccc(C(=O)N[C@@H](CCC(=O)O)C(=O)O)cc3)cnc2[nH]1 [folic acid]
- processing as substrate for polyglutamylation by FPGS activity (words) [1]: very poor substrates; also recorded: very low level of activity
- processing as substrate for polyglutamylation by FPGS activity (words) ([1]; listed as folate): negligibly processed
- polyglutamylated forms of folate produced compared with that produced from THF [1, 5]: insignificant

B1: PfDHFS–FPGS (DHFS activity) (Plasmodium falciparum 3D7) (protein)
chain: MEKNQNDKSNKNDIIHMNDKSGNYDKNNINNFIDKNDEHDMSDILHKINNEEKKYEEIKSYSECLELLYKTHALKLGLDNPKKLNESFGHPCDKYKTIHIAGTNGKGSVCYKIYTCLKIKKFKVGLFSSPHIFSLRERIIVNDEPISEKELIHLVNEVLNKAKKLYINPSFFEIITLVAFLHFLNKKVDYAIIETGIGGRLDATNILTKPEVIVITSIGYDHLNILGDNLPIICNEKIGIFKKDANVVIGPSVAIYKNVFDKAKELNCTIHTVVPEPRGERYNEENSRIALRTLEILNISIDYFLKSIIPIKPPLRIQYLATEQIQHIKKKFSPDNLEHNVQYPLAVILDVGHNETAIDRLCTDINYFHKGQNIRICISITKPRNLSVFHPFIAQFGDTLKDIFYLPSLNERTYDFEEIVEMLNNEEEIKNEIKELILSSSKKVGKWLAHEKQGNINEEDALKLYKRGCIPLIIKNAFLECCKDNSILLVCGTFFVFDEVLNVFDIHSDMQDTIFMNEPSLV
- Km [4]: 5.97 µM
